Assay results taken from paper PMC3843727, “Isolation and Functional Characterization of Calcitonin-Like Diuretic Hormone Receptors in Rhodnius prolixus” (PLoS ONE, 2013).
Ends that are not written are not given here.

How the values were obtained:
Malpighian tubules = settings: reference stimulant; cited from earlier work
Rhopr-CT/DH-R1-B = test: Bioluminescence (calcium mobilization) assay, HEK293/CNG cells expressing Rhopr-CT/DH-R1-B; assay type: cell-based, R. prolixus; settings: luminescence
Excerpt: (§1) The largest cDNA fragments encoding Rhopr-CT/DH-R1 transcript variants and Rhopr-CT/DH-R2-B were amplified as described earlier (see section: Isolation of cDNA sequences encoding R. prolixus CT/DH receptors). The PCR products from these reactions were used as a template to amplify the ORF and introduce a Kozak translation initiation sequence at the 5´ end using the primers listed in Table S5 in File S1. The resulting products were cloned into pGEM-T Easy vector (Promega, Madison, WI, USA). These were then subcloned into either pIRES2-ZsGreen1 (Clontech, Mountain View, CA, USA) or pcDNA 3.1^+ (Life Technologies Corporation, Carlsbad, CA, USA) for expression in mammalian cells.
(§2) Human embryonic kidney (HEK)-293 cells stably expressing a modified cyclic nucleotide-gated (CNG) channel (HEK293/CNG) (previously available through BD Biosciences, Mississauga, ON, Canada) were used to functionally characterize the receptors. […]
(§3) Bioluminescence assay using CHO/G16 cells was performed as described previously. […] Cells were loaded in each well using an automated injector and the luminescence recorded over 20 seconds using a Wallac Victor2 plate reader (Perkin Elmer, San Diego, CA, USA). […] Dose-response curves were obtained and the EC50 values determined using Prism5 software.

Rhopr-CT/DH-R1-C = test: Bioluminescence (calcium mobilization) assay, HEK293/CNG cells expressing Rhopr-CT/DH-R1-C; assay type: cell-based, R. prolixus; settings: luminescence
Excerpt: as §1, §2, §3

Rhopr-CT/DH-R2-B = test: Bioluminescence (calcium mobilization) assay, HEK293/CNG cells expressing Rhopr-CT/DH-R2-B; assay type: cell-based, R. prolixus; settings: luminescence
Excerpt: as §1, §2, §3

Row | Molecule | rate of fluid secretion by MTs (Malpighian tubules) | receptor activation (Rhopr-CT/DH-R1-B) | receptor activation (Rhopr-CT/DH-R1-C) | receptor activation (Rhopr-CT/DH-R2-B)
1 | MQRPQGPSLSVANPIEVLRSRLLLEIARRRMKEQDASRVSKNRQYLQQI-NH2 [Rhopr-CRF/DH, R. prolixus corticotropin releasing-factor (CRF)-related diuretic hormone, custom synthesised by GenScript at > 95% purity] | maximum rate | None of these receptors were activated | None of these receptors were activated | None of these receptors were activated
2 | NCCc1c[nH]c2ccc(O)cc12 [serotonin] | maximum rate | – | – | –
3 | NSELINSLLSLPKNMNDA-NH2 [Drome-PDF, D. melanogaster pigment dispersing factor, custom synthesized by GeneMed Synthesis at > 95% purity] | – | None of these receptors were activated | None of these receptors were activated | None of these receptors were activated
